Measured values reported in patent US9901097B2, “Agricultural and horticultural fungicidal composition” (Nippon Soda Co., Ltd., priority 2011, dated 2018).

System: Botrytis cinerea
Experiment: Sterilization test (growth inhibition of Botrytis cinerea in potato dextrose medium, 96-well microplate, turbidity 405 nm)
Type: cell-based
Conditions: Botrytis cinerea; Example 1 (Tables 1-5); drug II alone 0.02 ppm; read-out: Growth inhibition rate
Protocol: The solutions thus obtained were mixed to prepare fungicidal compositions.
Conidia of Botrytis cinerea were added to and dispersed in a potato dextrose culture medium. A fungicidal composition was added thereto and mixed. This was dispensed in a 96-well microplate and cultured at 20° C. for 3 days in a dark setting. Then, the turbidity was measured at a wavelength of 405 nm in a microplate reader. From comparison with the measured value of turbidity in the case of non-treatment (without the addition of the fungicidal composition), the growth inhibition rate of Botrytis cinerea (%) was calculated. The test was carried out in duplicate. Further, the expected value of the growth inhibition was calculated based on Colby's equation.
In addition, the Colby's equation is E=M+N−MN/100. Here, E is the expected value of a growth inhibition rate (%), M is the growth inhibition rate (%) calculated from the measurement with the use of the drug I alone, and N is the growth inhibition rate (%) calculated from the measurement with the use of the drug II alone. Additionally, in Tables, the expected values with the use of the drug alone were not shown, because they were the same as the values calculated from the measurement.
At the concentrations shown in Tables 6 to 8, the drug I and the drug II were dissolved separately in dimethyl sulfoxide. The obtained solution was mixed to prepare a fungicidal composition.
Using the same methods as in Example 1 and Comparative Example 1, the sterilization test was carried out. Additionally, in Tables, the expected values with the use of the drug alone were not shown, because they were the same as the values calculated from the measurement.

First: N#Cc1c[nH]cc1-c1cccc2c1OC(F)(F)O2 [Drug 20, Fludioxonil]
Second: O=C1c2ccccc2C(=O)N1SC(Cl)(Cl)Cl [Drug 37, Folpet]
The inhibition at 0.02 ppm of the first is higher: 39% for the first, 10% for the second.

Compared with O=[N+]([O-])c1cc(C(F)(F)F)c(Cl)c([N+](=O)[O-])c1Nc1ncc(C(F)(F)F)cc1Cl [Drug 31, Fluazinam], Cc1cc(C2CC2)nc(Nc2ccccc2)n1 [Drug 34, Cyprodinil] is lower in inhibition at 0.02 ppm: 20% for the first, 0% for the second.

With O=C1C2CC=CCC2C(=O)N1SC(Cl)(Cl)Cl (centres unmarked) [Drug 33, Captan] the inhibition at 0.02 ppm was 28%.

Same assay, conditions: Botrytis cinerea; Example 1 (Tables 1-5); drug II alone 0.08 ppm; read-out: Growth inhibition rate

First: CCO[PH](=O)O [Drug 13, Fosetyl]
Second: CN(C)C(=S)SSC(=S)N(C)C [Drug 24, Thiram]
The inhibition at 0.08 ppm of the first is lower: 2% for the first, 30% for the second.

Compared with CC(C)(C)C(O)(CCc1ccc(Cl)cc1)Cn1cncn1 (centres unmarked) [Drug 22, Tebuconazole], O=C(NCCc1ncc(C(F)(F)F)cc1Cl)c1ccccc1C(F)(F)F [Drug 30, Fluopyram] is lower in inhibition at 0.08 ppm: 34% for the first, 16% for the second.

First: N#Cc1c(Cl)c(Cl)c(Cl)c(C#N)c1Cl [Drug 25, Chlorothalonil]
Second: CO/N=C(/C(=O)OC)c1ccccc1COc1ccccc1C [Drug 28, Kresoxim-methyl]
The inhibition at 0.08 ppm of the first is lower: 4% for the first, 20% for the second.

Work on CON=C(C(=O)OC)c1ccccc1CON=C(C)c1cccc(C(F)(F)F)c1 [Drug 26, Trifloxystrobin] yielded an inhibition at 0.08 ppm of 32%.

Same assay, conditions: Botrytis cinerea; Example 1 (Tables 1-5); drug II alone 0.4 ppm; read-out: Growth inhibition rate

Compared with CCC(C)(NC(=O)c1cc(Cl)c(C)c(Cl)c1)C(=O)CCl (centres unmarked) [Drug 12, Zoxamide], CC(C)NC(=O)N1CC(=O)N(c2cc(Cl)cc(Cl)c2)C1=O [Drug 36, Iprodione] is higher in inhibition at 0.4 ppm: 3% for the first, 39% for the second.

Going from CC1COC(Cn2cncn2)(c2ccc(Oc3ccc(Cl)cc3)cc2Cl)O1 (centres unmarked) [Drug 21, Difenoconazole] to CC1=C(C(=O)Nc2ccccc2)SCCO1 [Drug 23, Carboxin], the inhibition at 0.4 ppm falls from 36% to 0%.

Same assay, conditions: Botrytis cinerea; Example 1 (Tables 1-5); drug II alone 2 ppm; read-out: Growth inhibition rate

C[C@@]1(c2ccc(Oc3ccccc3)cc2)OC(=O)N(Nc2ccccc2)C1=O (racemic) [Drug 9, Famoxadone] and CCNC(=O)NC(=O)/C(C#N)=N/OC [Drug 7, Cymoxanil] are the same in inhibition at 2 ppm: 0% for the first, 0% for the second.

Same assay, conditions: Botrytis cinerea; Example 1 (Tables 1-5); drug II alone 10 ppm; read-out: Growth inhibition rate

COCC(=O)N(c1c(C)cccc1C)C(C)C(=O)OC (centres unmarked) [Drug 6, Metalaxyl] and CC(C)OC(=O)N[C@H](C(=O)N[C@H](C)c1nc2ccc(F)cc2s1)C(C)C [Drug 8, Benthiavalicarb-isopropyl] are the same in inhibition at 10 ppm: 0% for the first, 0% for the second.

Going from Cc1ccc(-c2c(Cl)nc(C#N)n2S(=O)(=O)N(C)C)cc1 [Drug 14, Cyazofamid] to Cc1cc(C(F)(F)F)nn1CC(=O)N1CCC(c2nc(C(=O)N(C)C3CCCc4ccccc43)cs2)CC1 (centres unmarked) [Drug 39], the inhibition at 10 ppm rises from 0% to 13%.

Compared with COc1cc(C)c(C(=O)c2c(OC)ccc(Br)c2C)c(OC)c1OC [Drug 16, Metrafenone], COP(=S)(OC)Oc1c(Cl)cc(C)cc1Cl [Drug 35, Tolclofos-methyl] is higher in inhibition at 10 ppm: 0% for the first, 35% for the second.

CC(C)Oc1cccc(NC(=O)c2ccccc2C(F)(F)F)c1 [Drug 18, Flutolanil] was tested, and the inhibition at 10 ppm was 0%.

Same assay, conditions: Example 1 (Tables 1-5); drug II alone 0.08 ppm

CO/C=C(/C(=O)OC)c1ccccc1Oc1cc(Oc2ccccc2C#N)ncn1 [Drug 27, Azoxystrobin] was tested, and the Growth inhibition rate was 30%.

Same assay, conditions: Example 1 (Tables 1-5); drug II alone 2 ppm

Compound Fc1ccc(Oc2ccnc3cc(Cl)cc(Cl)c23)cc1 [Drug 17, Quinoxifen] has a Growth inhibition rate of 0%.

Same assay, conditions: Example 1 (Tables 1-5); drug II alone 10 ppm

CCCCCCCCc1c(CC)nc2ncnn2c1N [Drug 10, Ametoctradin] and CCCOc1nc2ccc(I)cc2c(=O)n1CCC [Drug 15, Proquinazid] are the same in Growth inhibition rate: 0% for the first, 0% for the second.

Going from O=C(NCc1ncc(C(F)(F)F)cc1Cl)c1c(Cl)cccc1Cl [Drug 11, Fluopicolide] to Cc1c(Cl)cc(-c2ccc(=O)[nH]n2)cc1Cl [Drug 19, Diclomezin], the Growth inhibition rate falls from 6% to 0%.

Same assay, conditions: Example 2 (Tables 6-8); drug II alone 10 ppm

Work on CNC(=O)/C(=N/OC)c1ccccc1CO/N=C(C)/C(=N/OC)C(/C)=N/OC [Drug 40, Orysastrobin] yielded a Growth inhibition rate of 58%.
